For 69 compounds, Potency and outcome results are on record in PubChem BioAssay AID1199 (EPA DSSTox, 2008).

Calls of active or inactive are those of the source.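 The calls were made as follows: active = a tumour-causing dose and a tumour site recorded for mice in at least one sex group; inconclusive = only government mouse studies exist and were judged inadequate; inactive = mouse studies exist but none gave tumours.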

The data set has as its system mouse carcinogenicity bioassay, TD50 from CPDB. As to the kind of experiment: DSSTox (CPDBAS) Carcinogenic Potency Database Summary Mouse Bioassay Results. From the text:
The Carcinogenic Potency Database (CPDB) is a unique and widely used international resource of the results of over 6500 chronic, long-term animal cancer tests on over 1500 chemical substances. The CPDB provides easy access to the bioassay literature, with qualitative and quantitative analyses of both positive and negative experiments that have been published over the past 50 years in the general literature and by the National Cancer Institute/National Toxicology Program. The CPDB standardizes the diverse literature of cancer bioassays that vary widely in protocol, histopathological examination and nomenclature, and in the published author's choices of what information to provide in their papers. Results are reported in the CPDB for tests in rats, mice, hamsters, dogs, and nonhuman primates, and are based on the most positive result among all experiments for each sex-species. The DSSTox CPDBAS (all species) file incorporates data from the CPDB Summary Tables for the full list of over 1500 chemical substances tested in at least one species. Summary bioassay results for Mouse (TD50, tumor sites, male, female, both sexes) are provided in the CPDB Summary Tables and the DSSTox CPDBAS file for over 1000 chemical substances.
TD50 is a standardized quantitative measure of carcinogenic potency (analogous to an LD50) and is reported in the CPDB Summary Table for each species. Activity Score for actives is computed by mapping of LOG10 (1/TD50_Mouse_mmol) activity values spanning range [MIN, MAX] onto Integer 1-100 Activity Score range, where 100 is highest potency and 1 is lowest: Activity Score = 100 * INTEGER[(log10(1/Activity) - MIN)/(MAX […] MIN)]. If activity is reported but no TD50_Mouse_mmol value is computed, such as for a mixture, the Activity Score is assigned the activity value "50". […] Target sites are reported for each sex-species group with a positive result in the CPDB on the basis of a positive author's opinion for the particular site, using all results from both the general literature and NCI/NTP bioassays. If a chemical has two or more target sites listed, the results may be from different experiments, and a single site may be a target organ in more than one experiment, as well. Blank entry in TargetSites field indicates no results reported.

The mark [1] stands for this setting: TD50_Mouse_Note: TD50 is harmonic mean of more than one positive test, TargetSites_Mouse_Female: liver.
Setting [2] is: TD50_Mouse_Note: no positive results, TargetSites_Mouse_Female: no positive results.
Setting [3] is: TargetSites_Mouse_Female: liver.
[4] abbreviates: TD50_Mouse_Note: TD50 is harmonic mean of more than one positive test, TargetSites_Mouse_Female: no positive results.
[5] abbreviates: TargetSites_Mouse_Female: no positive results.
The mark [6] stands for this setting: TD50_Mouse_Note: no positive results.

As for `C=CCc1ccc(OC)c(OC)c1`, the Potency under setting [1] was 0.108 mmol/kg/day. On to `NC(=S)NNS(=O)(=O)c1ccccc1`, for which the result under setting [2] was inactive. In the case of `ClC(Cl)C(Cl)Cl`, the Potency under setting [1] is 0.228 mmol/kg/day. With `ClC=C(Cl)Cl`, the Potency reads like this: under setting [1], 2.61 mmol/kg/day; (TD50_Mouse_Note: TD50 is harmonic mean of more than one positive test, greater than ten-fold variation among TD50 values for positive res, TargetSites_Mouse_Female: liver, lung) 12 mmol/kg/day.

`CCOC(=O)[C@H](CCc1ccccc1)N[C@@H](C)C(=O)N1Cc2ccccc2C[C@H]1C(=O)O`: the outcome under setting [2] was “inactive; no positive results”. Same read-out and setting: with `Nc1ccc([N+](=O)[O-])cc1N` the entry was “inactive; no positive results”; with `ClC1=C(Cl)[C@]2(Cl)[C@@H]3[C@H]4C[C@H]([C@@H]5O[C@H]45)[C@@H]3[C@@]1(Cl)C2(Cl)Cl`, “inactive; no positive results”. `O=C1CCc2ccccc2O1`: under setting [3], the Potency is 4.88 mmol/kg/day.

Regarding `NCCNc1cccc2ccccc12`, the outcome under setting [2] is “inactive; no positive results”. On to `CNc1ccc(N(CCO)CCO)cc1[N+](=O)[O-]`, for which the Potency under setting [1] is 0.308 mmol/kg/day and the Potency (TD50_Mouse_Note: TD50 is harmonic mean of more than one positive test, harmonic mean of TD50 includes a value for upper 99% confidence li, TargetSites_Mouse_Female: liver) is 0.338 mmol/kg/day. On to `O=c1ccc(=O)[nH][nH]1`, for which, under setting [2], the outcome is “inactive; no positive results”. Take `CN(N)C=O`: the Potency (TD50_Mouse_Note: TD50 is harmonic mean of more than one positive test, greater than ten-fold variation among TD50 values for positive res, TargetSites_Mouse_Female: gall bladder, liver, lung, vascular system) was 0.0185 mmol/kg/day. Turning to `NC(=O)/C(=C\c1ccc([N+](=O)[O-])o1)c1ccco1`, where the note is “TD50_Mouse_Note: TD50 is harmonic mean of more than one positive test, greater than ten-fold variation among TD50 values for positive res, TargetSites_Mouse_Female: stomach”, the Potency is 0.528 mmol/kg/day. Turning to `ClCc1ccccn1`, the outcome under setting [2] is “inactive; no positive results”. The same measure, in the same setting: with `CNC(=O)CSP(=S)(OC)OC` the entry was “inactive; no positive results”; with `O=C1CCCCCN1`, “inactive; no positive results”. As to `OCCN(CCO)C(=S)S`, the Potency under setting [4] was 0.172 mmol/kg/day.

In the case of `FC(F)Cl`, the outcome under setting [2] was “inactive; no positive results”. On to `O=C1c2ccccc2CN2C(=O)c3ccccc3CN12`, for which, for the setting “TD50_Mouse_Note: TD50 is harmonic mean of more than one positive test, TargetSites_Mouse_Female: liver, vascular system”, the Potency was 3.27 mmol/kg/day. In the case of `CC(=O)N(O)c1ccc2c(c1)Cc1ccccc1-2`, the Potency (TargetSites_Mouse_Female: esophagus, kidney, liver, stomach, urinary bladder) was 0.026 mmol/kg/day. `C=C(C)[C@H]1Cc2c(ccc3c2O[C@@H]2COc4cc(OC)c(OC)cc4[C@@H]2C3=O)O1`: the outcome under setting [2] is “inactive; no positive results”. Consider `O.O.O.O.O.O.O.O=S(=O)([O-])[O-].[Co+2]`, for which, for the setting “TD50_Mouse_Note: TD50 is harmonic mean of more than one positive test, TargetSites_Mouse_Female: lung”, the Potency was 0.00269 mmol/kg/day.

Turning to `CCCCN(CCCC)C(=S)[S-].CCCCN(CCCC)C(=S)[S-].[Zn+2]`, under setting [2], the outcome was “inactive; no positive results”. As to `CC(COc1ccccc1)N(CCCl)Cc1ccccc1` (stereo unspecified), the Potency (TD50_Mouse_Note: positive test results only by intraperitoneal or intravenous injection, TD50 is harmonic mean of more than one positive, TargetSites_Mouse_Female: peritoneal cavity) was 0.0158 mmol/kg/day. Regarding `Nc1ccc(Cl)c(N)c1`, the Potency under setting [3] is 8.63 mmol/kg/day. Take `Cc1cccc(C)c1NC(=O)CN1CCCC1=O`: the outcome under setting [2] was “inactive; no positive results”. Regarding `OC(c1ccc(Cl)cc1)(c1ccc(Cl)cc1)C(Cl)(Cl)Cl`, the Potency under setting [5] was 0.0888 mmol/kg/day. For the compound `N[C@@H](CCC(=O)O)C(=O)O`, the outcome under setting [6] was “inactive; no positive results”. `COc1nn(CSP(=S)(OC)OC)c(=O)s1`: under setting [5], the Potency is 0.02 mmol/kg/day.

As to `ClCCOCCCl`, the Potency under setting [4] is 0.0818 mmol/kg/day.

`CC(Oc1cc(Cl)ccc1Cl)C(=O)O` (stereo unspecified): the outcome under setting [2] is “inactive; no positive results”. With `Nc1ccc2ccccc2c1`, the Potency under setting [1] is 0.275 mmol/kg/day. As to `CCCOC(=O)c1cc(O)c(O)c(O)c1`, the outcome under setting [2] is “inactive; no positive results”. Take `C/C=N/N(C)C=O`: the Potency (TD50_Mouse_Note: TD50 is harmonic mean of more than one positive test, TargetSites_Mouse_Female: clitoral gland, lung, stomach) was 0.0251 mmol/kg/day. In the case of `CNC[C@H](O)c1ccc(O)c(O)c1`, the outcome (TD50_Mouse_Note: only experiment is NCI/NTP bioassay inadequate, TargetSites_Mouse_Female: NTP bioassay inadequate) is “ntp bioassay inadequate”.

Take `O=[N+]([O-])c1ccc2nc[nH]c2c1`: the Potency under setting [1] was 2.28 mmol/kg/day. Turning to `CCCCCCCCCc1ccc(OCCOCCO)cc1`, under setting [2], the result was inactive. Consider `N=C1C=CC(=C(c2ccc(N)cc2)c2ccc(N)cc2)C=C1`, for which the Potency (TD50_Mouse_Note: TD50 is harmonic mean of more than one positive test, TargetSites_Mouse_Female: adrenal gland, liver) is 0.159 mmol/kg/day.

Turning to `CN(C)/N=N/c1nc[nH]c1C(N)=O`, the Potency (TD50_Mouse_Note: positive test results only by intraperitoneal or intravenous injection, TD50 is harmonic mean of more than one positive, TargetSites_Mouse_Female: hematopoietic system, lung, uterus, vascular system) was 0.0053 mmol/kg/day. For `O=[N+]([O-])c1ccc(Nc2ccc(Nc3ccccc3)c(S(=O)(=O)O)c2)c([N+](=O)[O-])c1`, the outcome under setting [2] is “inactive; no positive results”. Consider `O.O.O.O.O.O.O=S(=O)([O-])[O-].[Ni+2]`, for which, under setting [2], the outcome was “inactive; no positive results”. Still for that read-out and setting: with `CC(=O)[O][Hg][c]1ccccc1` the entry was “inactive; no positive results”; with `COC(=O)c1ccc(C(=O)OC)cc1`, “inactive; no positive results”. For `COc1ccc([N+](=O)[O-])cc1N`, the Potency under setting [3] was 22.1 mmol/kg/day. Consider `CCC(=O)C(CC(C)N(C)C)(c1ccccc1)c1ccccc1` (stereo unspecified), for which, under setting [2], the outcome is “inactive; no positive results”.

On to `Clc1cc2c(cc1Cl)Oc1cc(Cl)c(Cl)cc1O2`, for which the Potency (TD50_Mouse_Note: TD50 is harmonic mean of more than one positive test, TargetSites_Mouse_Female: liver, thyroid gland) is 4.85e-07 mmol/kg/day. As to `CNC(=O)Oc1cccc2ccccc12`, under setting [2], the outcome was “inactive; no positive results”. For the compound `N[C@@H](Cc1c[nH]c2ccccc12)C(=O)O`, the outcome under setting [2] was “inactive; no positive results”.

As for `NC(=O)c1ccccc1C(N)=O`, the outcome under setting [2] was “inactive; no positive results”.

As to `O=C1O[C@H]([C@H](O)CO)C(O)=C1O`, the outcome under setting [2] was “inactive; no positive results”. On the same count and under the same terms, with `CC#N` the entry was “inactive; no positive results”. As for `ClC(Cl)=C(Cl)c1c(Cl)c(Cl)c(Cl)c(Cl)c1Cl`, the outcome under setting [6] is “inactive; no positive results”. On to `Clc1cc2c(c(Cl)c1Cl)Oc1c(cc(Cl)c(Cl)c1Cl)O2`, for which, under setting [1], the Potency is 3.66e-06 mmol/kg/day. In the case of `FC(F)(Cl)Cl`, under setting [2], the outcome was “inactive; no positive results”. In the case of `CCOc1ccccc1C(N)=O`, under setting [5], the Potency is 3.11 mmol/kg/day. As for `CCN(CC)C(=O)Nc1ccc(OCC(O)CNC(C)(C)C)c(C(C)=O)c1` (stereo unspecified), under setting [2], the outcome is “inactive; no positive results”. In the case of `CCNC(=O)Nc1ncc([N+](=O)[O-])s1`, the Potency under setting [5] was 3.51 mmol/kg/day. With `C=CC(=C)C`, the Potency (TD50_Mouse_Note: TD50 is harmonic mean of more than one positive test, TargetSites_Mouse_Female: harderian gland, pituitary gland, vascular system) is 4.02 mmol/kg/day.

`Nc1ccc(Nc2ccccc2)cc1`: the outcome under setting [2] is “inactive; no positive results”. Still for that read-out and setting: the same measure for `OC[C@H]1O[C@@H]2O[C@H]3[C@H](O)[C@@H](O)[C@@H](O[C@H]4[C@H](O)[C@@H](O)[C@@H](O[C@H]5[C@H](O)[C@@H](O)[C@@H](O[C@H]6[C@H](O)[C@@H](O)[C@@H](O[C@H]7[C@H](O)[C@@H](O)[C@@H](O[C@H]8[C@H](O)[C@@H](O)[C@@H](O[C@H]1[C@H](O)[C@H]2O)O[C@@H]8CO)O[C@@H]7CO)O[C@@H]6CO)O[C@@H]5CO)O[C@@H]4CO)O[C@@H]3CO`: “inactive; no positive results”; for `CC1(C)[C@H](C(=O)O[C@H](C#N)c2cccc(Oc3ccccc3)c2)[C@@H]1C=C(Br)Br`: “inactive; no positive results”; for `CCCCOC(=O)c1ccc(O)cc1`: “inactive; no positive results”. Regarding `CCOC(=O)CBr`, the outcome under setting [2] was inactive. Consider `C=COC(C)=O`, for which the Potency (TargetSites_Mouse_Female: esophagus, oral cavity, stomach, uterus) was 45.5 mmol/kg/day. On to `O=C(O)CCCc1ccc(N(CCCl)CCCl)cc1`, for which, where the note is “TD50_Mouse_Note: positive test results only by intraperitoneal or intravenous injection, TD50 is harmonic mean of more than one positive, TargetSites_Mouse_Female: lung”, the Potency is 0.000437 mmol/kg/day.

Consider `COc1ccc2nc(S(=O)Cc3ncc(C)c(OC)c3C)[nH]c2c1` (stereo unspecified), for which the outcome under setting [2] was “inactive; no positive results”. Still for that read-out and setting: with `CC1CC(C)(C)CC(OOC(C)(C)C)(OOC(C)(C)C)C1` (stereo unspecified) the entry was “inactive; no positive results”.

With `O=C1OC(c2ccc(O)cc2)(c2ccc(O)cc2)c2ccccc21`, the Potency (TD50_Mouse_Note: TD50 is harmonic mean of more than one positive test, TargetSites_Mouse_Female: hematopoietic system, ovary) was 3.68 mmol/kg/day. As to `CC(C)(C)NC(=O)[C@H]1CC[C@H]2[C@@H]3CC[C@H]4NC(=O)C=C[C@]4(C)[C@H]3CC[C@]12C`, the Potency is 0.875 mmol/kg/day.
